Experimental data as given in patent publication US12065470B2, “Zinc-charged peptides for the treatment of cancer and alzheimer's disease” (priority 2022, dated 2024).
Each block holds one compound with its values, some of them ahead of it. Starred links: 1 amine or outer side, 2 acyl side, 3 side chain; linkers in the order of their positions; H or OH if unused. Positions of bridges follow the written chain, without caps; N, C: chain ends. Non-standard residues stand in square brackets, D forms with d. Residues, ends and D or L forms follow the SMILES beside them. Chains are numbered I, II in the order given. No end group written: not given here. Actinocin(9to1) = Cc1c2oc3c(C)ccc(C(=O)[*:1])c3nc-2c(C(=O)[*:2])c(N)c1=O; NMeV = CN[C@H](C(=O)O)C(C)C; Sar = CNCC(=O)O

Columns and labels:
[1] = test system: HT-29 colon cancer cells; assay: Combination with chemotherapy drugs, apoptosis in HT-29; format: cell-based; conditions: for interaction of chemotherapy drug with zinc-charged peptide (apoptosis): drug 6 μg per ml 12 hours, then zinc-charged 4H 4 μM for 6 hours, HT-29
Method: To test this, HT-29 colon cancer cells were pre-incubated with various chemotherapy drugs at 6 μg per ml for 12 hours, then zinc-charged 4H at 4 μM was added for an additional 6 hours. Most chemotherapy drugs take up to 48 hours to see substantial apoptosis, and as such, the cells were pre-incubated with chemotherapy drugs first. The chemotherapy drugs tested included actinomycin (“A”), carmustine (“C”), docorubicin (“Dox”), genistin (“G”), 5-FU, and Tarceva.

[2] = test system: various cancer cell lines; assay: Apoptosis-inducing activity on various cancer cell lines (earlier work); format: cell-based
Source text: Cow milk is known to contain numerous proteins and other beneficial compounds for humans.
(§1) Since alpha-lactalbumin is the major milk protein present in milk, this protein was first tested to determine if the bioactive peptides were derived from alpha-Lactalbumin. Purified alpha-lactalbumin was therefore treated with EDTA and zinc acetate.

[3] = Absorption by gastrointestinal tract (earlier work); conditions: before digestion with papain
Source text: as §1

[4] = Water solubility of the peptide; format: physicochemical; conditions: uncharged peptide
Source text: The first peptide, listed as SEQ. ID NO. 1 in the accompanying sequence listing, has an amino acid sequence of E-Y-G-L-F-Q-I-S-N-K-L. This peptide, which is derived from natural human alpha-lactalbumin, will be referred to herein as “4H.” The second peptide, listed as SEQ. ID NO. […] This peptide has an amino acid sequence of E-Y-G-L-F-Q-I-S-N-K-K and will be referred to herein as “4H3.” Both these peptides were charged with zinc ions using the disclosed method to activate their apoptotic activities. Further, once these two peptides were charged with zinc ions, additional effects such as reducing Tau protein, increasing brain ATP levels and inhibiting P38 in the brain were observed, showing that these zinc-charged peptides further have a role in treating diseases involving tauopathy, such as Alzheimer's Disease and Parkinson's Disease.
Disclosed herein are two zinc-charged chemically synthesized peptides based upon the alpha-lactalbumin that are able to treat cancer and diseases involving tauopathy once activated by the disclosed method of charging the peptides with zinc ions. The first peptide, 4H, has an amino acid sequence of E-Y-G-L-F-Q-I-S-N-K-L (Seq. No. 1). The second peptide, 4H3, has an amino acid sequence of E-Y-G-L-F-Q-I-S-N-K-K (Seq. No. 2). […]

[5] = biological target: T1, hexokinase II (Homo sapiens, UniProt P52789); assay: In vitro hexokinase II assay; format: biochemical
T1 sequence (P52789 1-917): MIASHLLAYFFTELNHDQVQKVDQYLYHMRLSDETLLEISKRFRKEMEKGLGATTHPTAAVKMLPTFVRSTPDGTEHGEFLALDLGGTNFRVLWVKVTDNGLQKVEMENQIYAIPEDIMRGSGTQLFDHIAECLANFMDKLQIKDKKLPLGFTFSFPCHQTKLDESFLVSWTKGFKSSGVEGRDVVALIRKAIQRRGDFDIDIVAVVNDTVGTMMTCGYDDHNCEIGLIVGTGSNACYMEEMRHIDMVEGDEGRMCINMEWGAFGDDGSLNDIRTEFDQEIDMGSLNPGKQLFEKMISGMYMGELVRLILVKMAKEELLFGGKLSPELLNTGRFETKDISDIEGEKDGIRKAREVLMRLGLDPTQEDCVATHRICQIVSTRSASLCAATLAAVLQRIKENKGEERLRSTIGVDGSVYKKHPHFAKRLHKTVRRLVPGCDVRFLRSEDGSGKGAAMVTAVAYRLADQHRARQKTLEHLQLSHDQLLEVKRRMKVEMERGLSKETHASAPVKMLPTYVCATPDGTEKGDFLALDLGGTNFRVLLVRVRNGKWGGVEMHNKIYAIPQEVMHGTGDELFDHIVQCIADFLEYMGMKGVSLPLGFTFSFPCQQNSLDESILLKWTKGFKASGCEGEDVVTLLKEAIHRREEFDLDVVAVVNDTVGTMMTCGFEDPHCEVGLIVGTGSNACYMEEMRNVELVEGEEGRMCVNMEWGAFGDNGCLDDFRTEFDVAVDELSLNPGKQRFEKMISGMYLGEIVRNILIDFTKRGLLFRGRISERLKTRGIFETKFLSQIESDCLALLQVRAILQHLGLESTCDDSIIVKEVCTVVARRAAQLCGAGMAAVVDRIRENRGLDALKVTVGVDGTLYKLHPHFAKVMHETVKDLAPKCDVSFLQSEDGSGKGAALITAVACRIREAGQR
Method: To test confirm that the zinc-charged peptides inhibit hexokinase II resulting in the inhibition of glycolysis, an in vitro hexokinase II assay was performed. FIG. 7 depicts the results of the in vitro hexokinase II assay. In this test, it was observed that hexokinase II was inhibited by zinc-charged 4H in a dose-dependent manner. […] These findings confirm that the zinc-charged peptides inhibit glycolysis at the hexokinase II enzyme level.

[6] = test system: muscle tissue glycolysis; assay: Muscle glycolysis in normal mice after oral dosing; format: in vivo; conditions: 0.5 mg per mouse per day, 5 days
Method: FIG. 9b is a bar graph depicting the level of glycolysis in the muscle tissue of normal mice after the mice were orally administered the zinc-charged peptide (4H, 0.5 mg/mouse) for five days compared to a control.
(§2) The zinc-charged peptides ability to inhibit glycolysis in other cancer cell lines, such as lung cancer, compared to their normal counterparts was also tested. […] To further study this observed phenomena in vivo, normal mice were fed with the zinc-charged 4H for five days, and the glycolysis of normal brain cells were studied. FIG. 9 depicts the results of this study. For this study, two groups of mice having four mice per group were compared, one being the control and the other being fed 0.5 mg of zinc-charged 4H per mouse per day for 5 days orally. After 5 days, brain and muscle tissue was collected, homogenized, and assayed for glycolysis rate.
(§3) In mice fed with 0.5 mg of zinc-charged 4H for 5 days, the brain glycolysis of these mice was enhanced by 44%.

[7] = test system: HT-29 cancer cells; assay: Intracellular glucose-6-phosphate in HT-29; format: cell-based; conditions: HT-29, 6 hours of incubation
Method: FIG. 6 is a bar graph depicting the level of intracellular Glucose-6-phosphate in HT-29 cancer cells after being incubated with the zinc-charged peptide 4H compared with a control.
(§4) To determine the mechanism of induction of apoptosis to HT-29 cancer cells by the zinc-charged peptides, a low concentration (1 μM) of zinc-charged 4H was incubated with HT-29 cancer cells, followed by biochemical analysis of the cell lysate of the HT-29 cancer cells.
(§5) Furthermore, the decreased lactate was associated with a lower ATP level and a lower Glucose-6-phosphate (G-6-P) level in HT-29 cells.

[8] = test system: normal WI38 lung cells; assay: Glycolysis (lactate) in WI38 cell lysate; format: cell-based; conditions: WI38, FIG. 8b
Method: (§6) FIG. 8b is a bar graph depicting the level of glycolysis end product lactate in Calu-1 lung cancer cell lysate and of normal WI38 lung cell lysate after incubation with zinc-charged peptide 4H compared to a control of unincubated Calu-1 lung cancer cell lysate and unincubated normal WI38 lung cell lysate.
as §2

[9] = test system: Calu-1 lung cancer cells; assay: Glycolysis (lactate) in Calu-1 cell lysate; format: cell-based; conditions: Calu-1, FIG. 8b
Method: as §6, §2

[10] = test system: HT-29 colon cancer cells; assay: Glycolysis (lactate) in HT-29 cell lysate; format: cell-based
Method: as §4, §5, §2

[11] = biological target: T1, hexokinase II; assay: Subcellular hexokinase II activity in HT-29; format: cell-based; conditions: HT-29, 1 μM, 5 hours
Method: FIG. 14 is a bar graph depicting the subcellular hexokinase II activity in mitochondria, cytosol, and microsome of HT-29 cells incubated with the zinc-charged peptide (4H, 1 μM, for 5 hours) compared to a control of only the vehicle.
FIGS. 14-16 depicts the testing results validating that the zinc-charged peptides inhibit each of these three bioenergetic pathways. FIG. 14 depicts the subcellular hexokinase II activity in mitochondria, cytosol, and microsome to determine whether the zinc-charged peptides inhibit the hexokinase II activity in mitochondria. For this test, HT-29 cancer cells were incubated with zinc-charged 4H at 1 μM for 5 hours. After incubation, sub-cellular fractions including cytosol, microsome, and mitochondria were prepared and the hexokinase II activity on these sub-cellular fractions were tested.

[12] = test system: brain tissue glycolysis; assay: Brain glycolysis in normal mice after oral dosing; format: in vivo; conditions: 0.5 mg per mouse per day, 5 days
Method: FIG. 9a is a bar graph depicting the level of glycolysis in the brain tissue of normal mice (N=4) after the mice were orally administered the zinc-charged peptide (4H, 0.5 mg/mouse) for five days compared to a control.
as §2, §3

[13] = test system: normal colon cell line CCD18Co; assay: Glycolysis (lactate) in CCD18Co cell lysate; format: cell-based; conditions: FIG. 8a
Method: as §6, with “FIG. 8a” for “FIG. 8b”, “in HT-29 colon” for “in Calu-1 lung”, “normal CCD18Co colon” for “normal WI38 lung”, “unincubated HT-29” for “unincubated Calu-1 lung”
as §2

[14] = test system: brain ATP; assay: Brain ATP level in mice after oral dosing; format: in vivo; conditions: 4H 0.5 mg per mouse per day, 5 days, normal mice
Method: FIG. 10 is a bar graph depicting the brain ATP level of normal mice after the mice were orally administered the zinc-charged peptide (4H, 0.5 mg/mouse) for five days compared to a control.
FIG. 11a is a bar graph depicting the brain ATP level of mice after the mice were orally administered the zinc-charged peptide (4H3, 1 mg/mouse) for five days compared to a control.
as §3
FIGS. 11a-d provide the graphical representations of these observations. FIG. 11a depicts the level of brain ATP in mice that were orally administered zinc-charged 4H3 compared to mice who were given the control. […] FIG. 11b depicts the level of brain Tau protein ATP in mice that were orally administered zinc-charged 4H3 compared to mice who were given the control. In this test, a 2.7 μg protein load was utilized. […] FIG. 11c depicts a retest of FIG. 11b, but with a lower protein load utilized instead. […] Lastly, FIG. 11d depicts the brain P38 MAPK levels in mice that were orally administered zinc-charged 4H3 compared to mice who were given the control. In this test, the mice given the zinc-charged 4H3 saw their brain P38 MAPK levels decrease by 61%.

Compound: Cc1c2oc3c(C)ccc(C(=O)N[C@@H]4C(=O)N[C@H](C(C)C)C(=O)N5CCC[C@H]5C(=O)N(C)CC(=O)N(C)[C@@H](C(C)C)C(=O)O[C@@H]4C)c3nc-2c(C(=O)N[C@@H]2C(=O)N[C@H](C(C)C)C(=O)N3CCC[C@H]3C(=O)N(C)CC(=O)N(C)[C@@H](C(C)C)C(=O)O[C@@H]2C)c(N)c1=O [actinomycin] (I: T[dV]P[Sar][NMeV] / II: T[dV]P[Sar][NMeV]; ester I:1-I:C, II:1-II:C; linker I:N-II:N via Actinocin(9to1))
interaction of chemotherapy drug with zinc-charged peptide (apoptosis) [1]: synergistic

Compound: O=c1c(-c2ccc(O)cc2)coc2cc(O[C@@H]3O[C@H](CO)[C@@H](O)[C@H](O)[C@H]3O)cc(O)c12 [genistin]
interaction of chemotherapy drug with zinc-charged peptide (apoptosis) [1]: synergistic

Compound: zinc-bound alpha-lactalbumin: purified alpha-lactalbumin treated with EDTA and zinc acetate
apoptosis-inducing activity [2]: contain apoptosis-inducing activity | absorption by gastrointestinal tract [3]: unable to be absorbed

Compound: O=c1[nH]cc(F)c(=O)[nH]1 [5-FU]
interaction of chemotherapy drug with zinc-charged peptide (apoptosis) [1]: synergistic

water solubility compared with 4H [4]: more water-soluble
Compound: EYGLFQISNKK [4H3, E-Y-G-L-F-Q-I-S-N-K-K]

Compound: O=NN(CCCl)C(=O)NCCCl [carmustine]
interaction of chemotherapy drug with zinc-charged peptide (apoptosis) [1]: synergistic

Compound: COc1cccc2c1C(=O)c1c(O)c3c(c(O)c1C2=O)C[C@@](O)(C(=O)CO)C[C@@H]3O[C@H]1C[C@H](N)[C@H](O)[C@H](C)O1 [doxorubicin]
interaction of chemotherapy drug with zinc-charged peptide (apoptosis) [1]: synergistic

hexokinase II inhibited ([5]; 5 μM): 28.6% | hexokinase II inhibited ([5]; 10 μM): 79.1% | hexokinase II inhibited ([5]; 20 µM): 94.6% | mitochondria associated hexokinase II activity inhibited [11]: 53%
Compound: E-Y-G-L-F-Q-I-S-N-K-L (EYGLFQISNKL; also: charged with zinc ions) [zinc-charged 4H, ID NO; 1 peptide derived from human alpha-lactalbumin, charged with zinc ions]
muscle glycolysis increased [6]: 15% | reduction of intracellular G-6-P level [7]: 39.6% | glycolysis inhibition [8]: 0% | glycolysis inhibited [9]: 11.1% | lactate lower than control cells ([10]; 1 μM, HT-29 lysate, FIG. 4): 81.4% | glycolysis inhibited ([10]; HT-29, FIG. 8a): up to 34.7% | percentage of apoptosis in HT-29 after adding zinc-charged 4H to chemotherapy drugs ([1]; 4 μM for 6 hours after 12 hours drug pre-incubation): significantly increased | brain glycolysis enhanced [12]: 44% | glycolysis inhibited [13]: 10.5% | increase in brain ATP level [14]: 31.4%
